Measured values reported in US20200022951A1, “MULTIVITAMIN COMPOSITION FOR IMPROVING VERBAL FLUENCY, DECREASING PERFORMANCE ANXIETY SYMPTOMS AND METHOD FOR PREPARING SAME” (priority 2017, published 2020).

Tested on: individuals with performance anxiety
Experiment: trials using the composition: anxiety and speech fluency
Format: in vivo
Settings: as component of the composition of the invention

Question: How did the “effect on anxiety amelioration” value turn out when NCCCC[C@H](N)C(=O)O [L-Lysine] was run?
Answer: positive effect
